Test results published in US12605366B2, “Telmisartan for the treatment of hypertension in dogs” (BOEHRINGER INGELHEIM VETMEDICA GMBH, priority 2019, dated 2026).

Legend:
[1] = test system: dogs with hypertension; test: Prospective, block-randomized, double-blind clinical trial: systolic blood pressure (SBP) in client-owned dogs with proteinuric CKD; type: in vivo, dog; conditions: for Average of SBP day 0: baseline; for Average of SBP day 0 / Average of SBP % change day 30 / Average of SBP change day 30 / Average of SBP % change day 60 / Average of SBP change day 60 / Average of SBP % change day 90 / Average of SBP change day 90 / Average of SBP day 30 / Average of SBP day 60 / Average of SBP day 90: dogs hypertensive at day 0, no amlodipine; for Average of SBP % change day 30 / Average of SBP change day 30 / Average of SBP % change day 60 / Average of SBP change day 60 / Average of SBP % change day 90 / Average of SBP change day 90 / Average of SBP % change day 120 / Average of SBP change day 120: change from baseline; for Average of SBP % change day 120 / Average of SBP change day 120: the other drug (telmisartan or enalapril) added after SBP measurement on day 90; for course of average SBP during the period of treatment: up to day 90
From the text: A prospective, block-randomized, double-blind clinical trial has been carried out. Fifty-four client-owned dogs with persistent pathologic renal proteinuria have been recruited over a 2-year period.
Azotemic and non-azotemic dogs (N=54) with hypertensive and non-hypertensive CKD have been recruited prospectively from patients presented to the hospital. Dogs included as cases will have confirmed persistent pathologic renal proteinuria due to CKD; in order to be classified as such, fulfillment of the criteria described below will be required.
Abdominal ultrasound findings consistent with CKD (bilaterally small, irregular kidneys) and absence of renal neoplasia have also been documented.
Dogs with suspected or confirmed hyper-adrenocorticism and diabetes mellitus have been included if their disease is considered well controlled with medical therapy.
Once included in the study and based on the presence/degree of azotemia, dogs have been grouped according to the International Renal Interest Society (IRIS) classification scheme for CKD. Those classified as IRIS stages 2-4 (serum creatinine ≥1.4 mg/dL with inappropriately dilute urine [USG<1.030]) have been considered azotemic (AZ), and those classified as IRIS stage 1 (creatinine <1.4 mg/dL) have been considered non-azotemic (non-AZ). Within each of these two groups, dogs will then be stratified according to IRIS recommendations for arterial pressure (AP) substaging. According to this scheme, dogs with persistent average indirect arterial systolic BP<150 mm Hg will be classified as AP0 (minimal risk for target organ damage). Those with persistent average indirect arterial systolic BP≥150 mm Hg have been classified as AP1-3 (at risk for target organ damage). Four groups will thus be identified: • 1. AZ (IRIS Stages 2-4), IRIS substage AP1-3 3. non-AZ (IRIS Stage 1), IRIS substage AP1-3 • 2. AZ (IRIS Stages 2-4), IRIS substage AP0 4. non-AZ (IRIS Stage 1), IRIS substage AP0
Once placed into one of these four groups, each patient has then been assigned, based on a randomized blocking scheme, to receive either enalapril (n=27) or telmisartan (n=27), as described below, with the aim of grouping being to ensure that equal numbers of each are included into the two treatment groups.
On inclusion (day 0), all owners have been required to read/sign a form consenting to their pets' participation in the study. The following baseline data have been collected for each case: full physical examination (performed by one of the study investigators), fundic examination, blood pressure measurement, serum chemistry panel, urinalysis, abdominal ultrasound, UPC and urine culture. The results of screening tests, if performed within 2 weeks of inclusion in the study, may be used as baseline information. Baseline UPC has been defined as the average of two measurements, taken 2 weeks apart, prior to enrollment.
On day 0, each dog has been randomized to receive telmisartan at 1 mg/kg PO q 24 h (TEL group, n=27) or enalapril at 0.5 mg/kg PO q 12 h (ENAL group, n=27) in a double-blind manner. Randomization and dispensation of telmisartan or enalapril has been carried out at the appropriate doses. Owners have been provided with appropriate contact numbers in the event of an emergency. Enalapril is readily available and telmisartan has been provided by Boehringer Ingelheim Vetmedica Inc., St. Joseph, MO in form of the an aqueous solution, which is commercially available as Semintra®.
For dogs that are classified as AP3 (SBP≥180 mmHg; ≥200 mmHg in sighthounds), a calcium channel blocker (CCB; amlodipine, 0.1 mg/kg PO q 24 hours) has been administered contemporaneously. Co-administration of RAAS-inhibitors and CCB is common in human patients, recommended by a panel of veterinary experts and shown to be efficacious in a laboratory model of proteinuria. All dogs have been started or maintained on a commercially available diet formulated to be low in phosphorus and protein, for at least 1 month prior to enrollment. […]

[2] = test system: dogs; conditions: cited from earlier work

With `CCOC(=O)[C@H](CCc1ccccc1)N[C@@H](C)C(=O)N1CCC[C@H]1C(=O)O` [Enalapril] the “Average of SBP day 0” value [1] was 163.17 mmHg, the “Average of SBP day 0” value ([1]; listed as enalapril) was 163 mmHg and the “Average of SBP % change day 30” value ([1]; day 30) was “+12.90%”. For the same compound, the “Average of SBP change day 30” value ([1]; day 30) was “+20.00 mmHg”, the “Average of SBP % change day 60” value [1] was “+0.65%” and the “Average of SBP change day 60” value [1] was “+1.00 mmHg”. The “Average of SBP % change day 90” value [1] was “+1.94%”, the “Average of SBP change day 90” value [1] was “+3.00 mmHg” and the “Average of SBP % change day 120” value ([1]; no amlodipine) was −20.65^1%. The “Average of SBP change day 120” value ([1]; no amlodipine) was −32.00^1 mmHg, the SBP increased ([1]; day 30, FIG. 2) was “more than 10%” and the “Average of SBP day 30” value ([1]; day 30) was 153.80 mmHg. For the same compound, the “Average of SBP day 30” value ([1]; day 30, listed as enalapril) was 153 mmHg, the “Average of SBP day 60” value [1] was 153.00 mmHg and the “Average of SBP day 90” value [1] was 158.00 mmHg. The “course of average SBP during the period of treatment” value ([1]; no amlodipine) was “increased again on days 60 and 90”.
With `CCCc1nc2c(C)cc(-c3nc4ccccc4n3C)cc2n1Cc1ccc(-c2ccccc2C(=O)O)cc1` [Telmisartan] the “Average of SBP day 0” value [1] was 163.57 mmHg, the “Average of SBP day 0” value ([1]; listed as telmisartan) was 163 mmHg and the “Average of SBP % change day 30” value ([1]; day 30) was −18.88%. The “Average of SBP change day 30” value ([1]; day 30) was −31.50 mmHg, the “Average of SBP % change day 60” value [1] was −18.42% and the “Average of SBP change day 60” value [1] was −31.00 mmHg. For the same compound, the “Average of SBP % change day 90” value [1] was −22.58%, the “Average of SBP change day 90” value [1] was −37.00 mmHg and the “Average of SBP % change day 120” value ([1]; no amlodipine) was −42.70^2%. For the same compound, the “Average of SBP change day 120” value ([1]; no amlodipine) was −76.00^2 mmHg, the “absolute average SBP compared to enalapril treated dogs” value ([1]; day 0 to day 90, no amlodipine, FIG. 4) was “much lower” and the “average change of SBP, reduction compared to enalapril-treated dogs” value ([1]; day 30) was “at least 30 mmHg”. The “reduction in SBP” value ([1]; day 30, FIG. 2) was about 20%, the “average SBP change from baseline compared to enalapril” value ([1]; day 30, day 60 and day 90, dogs with SBP of at least 150 mmHg at day 0 which received amlodipine, FIG. 3) was “greater” and the “Average of SBP day 30” value ([1]; day 30) was 140.86 mmHg. The “average change (reduction) in SBP compared to enalapril treated dogs” value ([1]; day 30 to day 90, no amlodipine, FIGS. 1 and 2) was “greater”, the “Average of SBP day 60” value [1] was 138.60 mmHg and the “Average of SBP day 90” value [1] was 132.33 mmHg. For the same compound, the “Average of SBP day 90” value ([1]; listed as telmisartan) was 132 mmHg, the “course of average SBP during the period of treatment” value ([1]; no amlodipine) was “constantly lowered” and the “effect on blood pressure” value ([2]; 1 mg/kg daily dose) was “have an effect on blood pressure”. For the same compound, the “vascular and renal excretory effects” value ([2]; daily oral dose) was “produces vasodilation, diuresis and natriuresis without influencing potassium or creatinine excretion”.
